Reference: PMC6439305 (iScience, 2019)

Molecular target: MOR-Venus (mu opioid receptor fused to Venus-YFP) (Mus musculus, UniProt P42866)
Assay: Galphai2/Ggamma2 BRET2 dissociation assay, HEK293
Assay type: cell-based
Conditions: agonist, 10 min stimulation

Chain of MOR-Venus (mu opioid receptor fused to Venus-YFP) (P42866 whole entry, the tested form may be a part): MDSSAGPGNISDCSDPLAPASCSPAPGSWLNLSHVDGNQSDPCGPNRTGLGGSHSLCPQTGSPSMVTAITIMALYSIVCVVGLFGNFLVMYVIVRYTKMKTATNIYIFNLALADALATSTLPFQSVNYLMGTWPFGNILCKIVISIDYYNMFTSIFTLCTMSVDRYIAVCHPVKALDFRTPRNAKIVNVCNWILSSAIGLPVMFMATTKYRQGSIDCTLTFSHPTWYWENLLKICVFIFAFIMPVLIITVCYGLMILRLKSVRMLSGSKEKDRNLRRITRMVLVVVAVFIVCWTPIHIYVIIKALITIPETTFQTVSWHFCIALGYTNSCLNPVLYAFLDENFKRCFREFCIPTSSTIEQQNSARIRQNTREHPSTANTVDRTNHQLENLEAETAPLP

## COc1ccc2c3c1O[C@H]1C(=O)CC[C@@]4(O)[C@@H](C2)N(C)CC[C@]314 [oxycodone]
  EC50: except for oxycodone, which had a trend of lower potency
